In ChEMBL document CHEMBL5038655, “Development of Novel Dihydrofuro[3,4-d]pyrimidine Derivatives as HIV-1 NNRTIs to Overcome the Highly Resistant Mutant Strains F227L/V106A and K103N/Y181C” (J Med Chem, 2022):
≈ marks a conversion by molar mass, not a printed value.

Tests used:
[1] = Tmax in Sprague-Dawley rat at 2 mg/kg, iv measured upto 10 hrs by LC-MS/MS analysis; assay type: ADME, organism-based; conditions: in vivo
[2] = Tmax in Sprague-Dawley rat at 10 mg/kg, po measured upto 12 hrs by LC-MS/MS analysis; assay type: ADME, organism-based; conditions: in vivo
[3] = AUC(0 to infinity) in Sprague-Dawley rat at 2 mg/kg, iv measured upto 10 hrs by LC-MS/MS analysis; assay type: ADME, organism-based; set-up: route intravenous, dose 2 mg/kg, time <=10; conditions: in vivo
[4] = target: Human immunodeficiency virus type 1 reverse transcriptase (Human immunodeficiency virus 1, UniProt Q72547); assay: Inhibition of wild type HIV-1 reverse transcriptase using biotin-labelled dNTPs as substrate incubated for 2 hrs by ELISA
[5] = test system: Human immunodeficiency virus 1; assay: Antiviral activity against HIV-1 IIIB infected in human MT4 cells assessed as protection against virus-induced cytotoxicity incubated for 5 days by MTT assay; assay type: functional, organism-based; conditions: Human immunodeficiency virus 1, IIIB, MT4, 120 h
[6] = Cmax in Sprague-Dawley rat at 2 mg/kg, iv measured upto 10 hrs by LC-MS/MS analysis; assay type: ADME, organism-based; set-up: route intravenous, dose 2 mg/kg, time <=10; conditions: in vivo
[7] = Cmax in Sprague-Dawley rat at 10 mg/kg, po measured upto 12 hrs by LC-MS/MS analysis; assay type: ADME, organism-based; set-up: route oral, dose 10 mg/kg, time <=12; conditions: in vivo
[8] = test system: Human immunodeficiency virus 1; assay: Antiviral activity against HIV-1 harboring reverse transcriptase Y188L mutant infected in human MT4 cells assessed as protection against virus-induced cytopathic effect incubated for 5 days by MTT assay; conditions: Human immunodeficiency virus 1, MT4, 120 h
[9] = test system: Human immunodeficiency virus 1; assay: Antiviral activity against HIV-1 harboring reverse transcriptase E138K mutant infected in human MT4 cells assessed as protection against virus-induced cytopathic effect incubated for 5 days by MTT assay; conditions: Human immunodeficiency virus 1, MT4, 120 h
[10] = test system: Human immunodeficiency virus 1; assay: Antiviral activity against HIV-1 harboring reverse transcriptase K103N mutant infected in human MT4 cells assessed as protection against virus-induced cytopathic effect incubated for 5 days by MTT assay; conditions: Human immunodeficiency virus 1, MT4, 120 h
[11] = Aqueous solubility of the compound at pH 7.4 by HPLC analysis; assay type: physicochemical; conditions: buffer
[12] = AUC(0 to t) in Sprague-Dawley rat at 2 mg/kg, iv measured upto 10 hrs by LC-MS/MS analysis; assay type: ADME, organism-based; set-up: route intravenous, dose 2 mg/kg, time <=10; conditions: in vivo
[13] = test system: Human immunodeficiency virus 1; assay: Antiviral activity against HIV-1 harboring reverse transcriptase F227L/V106A mutant infected in human MT4 cells assessed as protection against virus-induced cytopathic effect incubated for 5 days by MTT assay; conditions: Human immunodeficiency virus 1, MT4, 120 h
[14] = test system: Human immunodeficiency virus 1; assay: Antiviral activity against HIV-1 IIIB harboring K103N/Y181C double mutant infected in human MT4 cells assessed as protection against virus-induced cytotoxicity incubated for 5 days by MTT assay; assay type: functional, organism-based; conditions: Human immunodeficiency virus 1, IIIB, MT4, 120 h
[15] = test system: Human immunodeficiency virus 1; assay: Antiviral activity against HIV1 L1001 infected in human MT4 cells assessed as protection against virus-induced cytopathic effect incubated for 5 days by MTT assay; assay type: functional, organism-based; conditions: Human immunodeficiency virus 1, L1001, MT4, 120 h
[16] = Aqueous solubility of the compound at pH 2.0 by HPLC analysis; assay type: physicochemical; conditions: buffer
[17] = AUC(0 to infinity) in Sprague-Dawley rat at 10 mg/kg, po measured upto 12 hrs by LC-MS/MS analysis; assay type: ADME, organism-based; set-up: route oral, dose 10 mg/kg, time <=12; conditions: in vivo
[18] = Terminal half life in Sprague-Dawley rat at 10 mg/kg, po measured upto 12 hrs by LC-MS/MS analysis; assay type: ADME, organism-based; conditions: in vivo, read-out: beta t1/2 (converted)
[19] = Selectivity index, ratio of CC50 for human MT4 cells to EC50 for antiviral activity against HIV-1 IIIB harboring K103N/Y181C double mutant infected in human MT4 cells; assay type: toxicity, cell-based; conditions: read-out: Ratio CC50/EC50
[20] = test system: Human immunodeficiency virus 1; assay: Antiviral activity against HIV-1 harboring reverse transcriptase Y181C mutant infected in human MT4 cells assessed as protection against virus-induced cytopathic effect incubated for 5 days by MTT assay; conditions: Human immunodeficiency virus 1, MT4, 120 h
[21] = Acute toxicity in Kunming mouse assessed as change in body weight at 2000 mg/kg, po measured for 7 days; assay type: organism-based; conditions: in vivo, time 7 day
[22] = test system: Human immunodeficiency virus 1; assay: Potency index, ratio of etravirine EC50 to test compound EC50 for antiviral activity against HIV-1 harboring reverse transcriptase F227L/V106A mutant infected in human MT4 cells assessed as protection against virus-induced cytopathic effect incubated for 5 days by MTT assay; assay type: functional; conditions: time 5 day
[23] = test system: Human immunodeficiency virus 1; assay: Potency index, ratio of rilpivirine EC50 to test compound EC50 for antiviral activity against HIV-1 harboring reverse transcriptase F227L/V106A mutant infected in human MT4 cells assessed as protection against virus-induced cytopathic effect incubated for 5 days by MTT assay; assay type: functional; conditions: time 5 day
[24] = AUC(0 to t) in Sprague-Dawley rat at 10 mg/kg, po measured upto 12 hrs by LC-MS/MS analysis; assay type: ADME, organism-based; set-up: route oral, dose 10 mg/kg, time <=12; conditions: in vivo
[25] = Clearance in Sprague-Dawley rat at 2 mg/kg, iv measured upto 10 hrs by LC-MS/MS analysis; assay type: ADME, organism-based; conditions: in vivo
[26] = Oral bioavailability in Sprague-Dawley rat at 10 mg/kg measured upto 12 hrs by LC-MS/MS analysis; assay type: ADME, organism-based; conditions: in vivo
[27] = Selectivity index, ratio of CC50 for human MT4 cells to EC50 for antiviral activity against HIV-1 IIIB infected in human MT4 cells; assay type: toxicity, cell-based; conditions: MT4 cells (uninfected and infected with HIV-1 IIIB), read-out: Ratio CC50/EC50
[28] = Aqueous solubility of the compound at pH 7.0 by HPLC analysis; assay type: physicochemical; conditions: buffer
[29] = Terminal half life in Sprague-Dawley rat at 2 mg/kg, iv measured upto 10 hrs by LC-MS/MS analysis; assay type: ADME, organism-based; conditions: in vivo, read-out: beta t1/2 (converted)
[30] = Cytotoxicity against human MT4 cells assessed as reduction in cell viability incubated for 5 days by MTT assay; assay type: toxicity, cell-based; conditions: time 5 day

Q: What does the source list for Cc1cc(/C=C/C#N)cc(C)c1Oc1nc(NC2CCN(c3ccc(NS(C)(=O)=O)cc3)CC2)nc2c1COC2?
A: Tmax [1]: 1.98 min; Tmax [2]: 1 h; AUC(0-inf) [3]: 908 ng·h/mL; IC50 [4]: 150 nM; EC50 [5]: 6.17 nM; Cmax [6]: 756 ng/mL; Cmax [7]: 307 ng/mL; EC50 [8]: 28.3 nM; EC50 [9]: 7.66 nM; EC50 [10]: 6.91 nM; solubility [11]: 2.1 µg/mL (≈ 3.75 µM); AUC(0-t) at 10 h [12]: 903 ng·h/mL; EC50 [13]: 5.79 nM; EC50 [14]: 27.9 nM; EC50 [15]: 12.4 nM; solubility [16]: 124 µg/mL (≈ 221 µM); AUC(0-inf) [17]: 753 ng·h/mL; half-life [18]: 1.47 h; selectivity ratio [19]: 1390; EC50 [20]: 8.91 nM; Activity [21]: Non-Toxic; Ratio EC50 [22]: 3.6; Ratio EC50 [23]: 14; AUC(0-t) at 12 h [24]: 727 ng·h/mL; clearance [25]: 36.7 mL/min/kg; bioavailability [26]: 16.6%; selectivity ratio [27]: 6290; solubility [28]: 10.1 µg/mL (≈ 18 µM); half-life [29]: 1.11 h; CC50 at 120 h [30]: 38800 nM
